Laboratory results taken from US20240408216A1, “PROTEIN INHIBITOR OR DEGRADING AGENT, PHARMACEUTICAL COMPOSITION CONTAINING SAME AND PHARMACEUTICAL USE” (JING MEDICINE TECHNOLOGY (SHANGHAI) LTD., priority 2021, published 2024).

How the values were obtained:
[1] = test system: BaF3 (EGFR L858R/T790M/C797S); experiment: Cell proliferation IC50 assay (Cell Titer GLO), BaF3 LTC cells; assay type: cell-based; conditions: Mus musculus, Ba/F3 EGFR, Table 6, 72 h
Outline: (§1)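 Log-phase cells seeded 2000-4000/well, serial compound dilutions added one day later; DMSO negative, medium-only blank.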

BaF3 (EGFR Del19/C797S) = molecular target: T1, BaF3 (EGFR Del19/C797S) (Homo sapiens, UniProt P00533, C797S, cells depend on it, form not given); experiment: Cell proliferation IC50 assay (Cell Titer GLO), BaF3 DC cells; assay type: cell-based, mouse; conditions: Table 6, 72 h
T1 construct: BaF3 (EGFR Del19/C797S)|DC|RPMI1640 + 10% FBS
T1 sequence (P00533 with tags, fused parts or gaps DEL746-750/C797S, form open): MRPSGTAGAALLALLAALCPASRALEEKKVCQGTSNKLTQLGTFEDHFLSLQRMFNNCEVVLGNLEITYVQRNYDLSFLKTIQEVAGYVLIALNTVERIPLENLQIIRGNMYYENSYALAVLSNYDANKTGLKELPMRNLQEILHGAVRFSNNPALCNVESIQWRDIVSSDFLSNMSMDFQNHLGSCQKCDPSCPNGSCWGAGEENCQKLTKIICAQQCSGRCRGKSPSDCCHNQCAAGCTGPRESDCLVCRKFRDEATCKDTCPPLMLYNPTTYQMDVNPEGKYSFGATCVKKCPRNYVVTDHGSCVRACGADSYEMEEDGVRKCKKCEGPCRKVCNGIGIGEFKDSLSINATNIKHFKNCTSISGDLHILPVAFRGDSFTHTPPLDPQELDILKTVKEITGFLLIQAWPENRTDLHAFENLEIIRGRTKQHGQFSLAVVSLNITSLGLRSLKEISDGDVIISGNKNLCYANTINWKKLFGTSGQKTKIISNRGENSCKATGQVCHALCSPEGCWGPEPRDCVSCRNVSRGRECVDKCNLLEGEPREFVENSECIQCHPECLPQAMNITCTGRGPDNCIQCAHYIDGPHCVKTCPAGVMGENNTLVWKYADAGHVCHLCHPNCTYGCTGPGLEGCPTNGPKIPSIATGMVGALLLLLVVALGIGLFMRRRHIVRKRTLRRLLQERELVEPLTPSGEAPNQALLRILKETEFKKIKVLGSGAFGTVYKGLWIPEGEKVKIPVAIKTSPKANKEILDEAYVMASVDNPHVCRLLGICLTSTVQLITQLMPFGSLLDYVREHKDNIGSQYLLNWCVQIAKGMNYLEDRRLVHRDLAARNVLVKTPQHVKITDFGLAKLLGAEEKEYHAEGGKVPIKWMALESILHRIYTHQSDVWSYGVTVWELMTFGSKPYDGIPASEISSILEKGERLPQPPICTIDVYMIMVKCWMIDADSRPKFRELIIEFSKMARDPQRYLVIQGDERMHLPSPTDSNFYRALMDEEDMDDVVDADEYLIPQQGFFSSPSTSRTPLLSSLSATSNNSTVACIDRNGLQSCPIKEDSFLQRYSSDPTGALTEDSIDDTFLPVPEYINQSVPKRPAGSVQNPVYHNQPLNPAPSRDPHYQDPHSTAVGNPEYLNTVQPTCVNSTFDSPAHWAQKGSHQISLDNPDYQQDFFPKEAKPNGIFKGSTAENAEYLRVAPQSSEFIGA
Outline: as §1

A431 = experiment: Cell proliferation IC50 assay (Cell Titer GLO), A431 cells; assay type: cell-based; conditions: Homo sapiens, A-431; Table 6; A431, 72 h; read-out: A431 IC50
Outline: as §1

[2] = test system: BaF3 (EGFR Del19/T790M/C797S); experiment: Cell proliferation IC50 assay (Cell Titer GLO), BaF3 DTC cells; assay type: cell-based; conditions: Mus musculus, Ba/F3 EGFR-Del19/T790M/C797S, Table 6, 72 h
Experimental: IC50 of compounds in the present invention was determined by Cell Titer GLO reagent from Promega. The procedures are as follows:
Tumor cells were cultured in specified medium in an incubator at 37° C. and 5% CO2. The cells were passaged periodically. Cells at the logarithmic growth phase were collected for plating at a density of 2000-4000 cells/well. The next day, the compounds of the present invention were serially diluted and added to the cells, with DMSO being the negative control and the culture media without cells being the blank control. The plate was incubated in the incubator for 72 h. The cell viability assay was performed by adding the detection reagents to the cell culture media according to Cell Titer GLO reagent instructions and detecting luminescent signals on an EnVision microplate reader (PerkinElmer).
Inhibition of cell growth by the compounds of the present invention was plotted by Prism Graphpad software for statistically calculating the IC50 of the compound of the present invention.

BaF3 (EGFR WT) = experiment: Cell proliferation IC50 assay (Cell Titer GLO), BaF3 WT cells; assay type: cell-based; conditions: Mus musculus, Ba/F3 EGFR, Table 6, 10 ng/ml EGF, 72 h
Outline: as §1

Row | Structure (SMILES) | IC50 [1] | IC50 (BaF3 (EGFR Del19/C797S)) | IC50 (A431) | IC50 [2] | IC50 (BaF3 (EGFR WT))
1 | CCc1cc(Nc2ncc(Cl)c(Nc3ccccc3P(C)(C)=O)n2)c(OC)nc1N1CCC(N2CCN(CCCCOc3cccc4c3CN(C3CCC(=O)NC3=O)C4=O)CC2)CC1 (stereo not shown) [Example E115] | 24.4 nM | 1.4 nM | 1160 nM | 5.19 nM | 779 nM
2 | CCc1cc(Nc2ncc(Cl)c(Nc3ccccc3P(C)(C)=O)n2)c(OC)cc1N1CCC2(CCN(CCCCOc3ccc(NC4CCC(=O)NC4=O)cc3)CC2)CC1 (stereo not shown) [Example E89] | 1040 nM | 79.9 nM | 3650 nM | 89.5 nM | 1150 nM
3 | COc1cc(C2CCN(C3CCN(CCCCOc4cccc5c4CN(C4CCC(=O)NC4=O)C5=O)CC3)CC2)c(OC)cc1Nc1ncc(Cl)c(Nc2ccccc2P(C)(C)=O)n1 (stereo not shown) [Example E98] | 45.2 nM | 5 nM | 1170 nM | 15.5 nM | 566 nM
4 | CCc1cc(Nc2ncc(Cl)c(Nc3ccccc3P(C)(C)=O)n2)c(OC)cc1N1CCC(N2CCN(C(C)(C)C#Cc3cccc4c3CN(C3CCC(=O)NC3=O)C4=O)CC2)CC1 (stereo not shown) [Example E156] | 218 nM | 16.7 nM | ≥ 1540 nM | 10.7 nM | > 4000 nM
5 | CCc1cc(Nc2nc(Nc3ccccc3P(C)(C)=O)c3cc[nH]c3n2)c(OC)cc1N1CCC(N2CCN(CCOc3cccc4c3CN(C3CCC(=O)NC3=O)C4=O)CC2)CC1 (stereo not shown) [Example E126] | 72.3 nM | 44 nM | > 4000 nM | 18.9 nM | > 4000 nM
6 | CCc1cc(Nc2ncc(Cl)c(Nc3ccc(C)c(C)c3P(C)(C)=O)n2)c(OC)cc1N1CCC(N2CCN(CCCCOc3cccc4c3CN(C3CCC(=O)NC3=O)C4=O)CC2)CC1 (stereo not shown) [Example E63] | 49.3 nM | 2.6 nM | 1150 nM | 7.31 nM | 659 nM
7 | CCc1cc(Nc2ncc(Cl)c(Nc3ccccc3P(C)(C)=O)n2)c(Cl)cc1N1CCC(N2CCN(CCC#Cc3cccc4c3CN(C3CCC(=O)NC3=O)C4=O)CC2)CC1 (stereo not shown) [Example E46] | 17.7 nM | 9.2 nM | 1610 nM | 10.1 nM | 1200 nM
8 | COc1cc(N2CCC(N3CCN(CCC#Cc4cccc5c4CN(C4CCC(=O)NC4=O)C5=O)CC3)CC2)c(CO)cc1Nc1ncc(Cl)c(Nc2ccccc2P(C)(C)=O)n1 (stereo not shown) [Example E91] | 115 nM | 5.2 nM | 1430 nM | 18.5 nM | 305 nM
9 | CCc1cc(Nc2ncc(Cl)c(Nc3ccccc3P(C)(C)=O)n2)c(OC)cc1N1CCC(N2CCN(CCCC#Cc3ccc4c(N5CCC(=O)NC5=O)nn(C)c4c3)CC2)CC1 [Example E97] | 173 nM | 20.6 nM | 1070 nM | 45.6 nM | 1060 nM
10 | CCc1cc(Nc2ncc(Cl)c(Nc3ccccc3P(C)(C)=O)n2)c(OC(F)F)cc1N1CCC(N2CCN(CCOc3cccc4c3CN(C3CCC(=O)NC3=O)C4=O)CC2)CC1 (stereo not shown) [Example E151] | 56.1 nM | 6.7 nM | 3160 nM | 3.85 nM | > 4000 nM
11 | CCc1cc(Nc2ncc(Cl)c(Nc3ccccc3P(C)(C)=O)n2)c(OC)cc1N1CCC(N2CCN(CCOc3cccc4c3CN(C3CCC(=O)NC3=O)C4=O)C(C)(C)C2)CC1 (stereo not shown) [Example E108] | 76.7 nM | 3.2 nM | 3550 nM | 10.5 nM | 1750 nM
12 | CCc1cc(Nc2ncc(Cl)c(Nc3ccccc3P(C)(C)=O)n2)c(OC(F)(F)F)cc1N1CCC(N2CCN(CCOc3cccc4c3CN(C3CCC(=O)NC3=O)C4=O)CC2)CC1 (stereo not shown) [Example E152] | 227 nM | 16.2 nM | 1470 nM | 7.63 nM | > 4000 nM
13 | CCc1cc(Nc2ncc(Cl)c(Nc3ccccc3P(C)(C)=O)n2)c(OC)cc1N1CCC(N2CCN(C3(CC#Cc4cccc5c4CN(C4CCC(=O)NC4=O)C5=O)CC3)CC2)CC1 (stereo not shown) [Example E57] | 456 nM | 22.1 nM | > 4000 nM | 72.5 nM | > 4000 nM
14 | CCc1cc(Nc2ncc(Cl)c(Nc3ccccc3P(C)(C)=O)n2)c(OC)cc1N1CCC(N2CCN([C@H]3C[C@@H](Oc4cc5c(cc4F)C(=O)N(C4CCC(=O)NC4=O)C5)C3)CC2)CC1 (stereo partly shown) [Example E67] | 20.6 nM | 4.4 nM | 2490 nM | 4.09 nM | 306 nM
15 | [2H]C([2H])([2H])C([2H])([2H])c1cc(Nc2ncc(Cl)c(Nc3ccccc3P(C)(C)=O)n2)c(OC)cc1N1CCC(N2CCN(CCOc3ccc4c(c3)CN(C3CCC(=O)NC3=O)C4=O)CC2)CC1 (stereo not shown) [Example E221] | 22.5 nM | 6.4 nM | > 4000 nM | 12.1 nM | 1750 nM
16 | COc1cc(N2CCC(N3CCN(CCCCOc4cccc5c4CN(C4CCC(=O)NC4=O)C5=O)CC3)CC2)c(C#N)cc1Nc1ncc(Cl)c(Nc2ccccc2P(C)(C)=O)n1 (stereo not shown) [Example E103] | 21.8 nM | 4.6 nM | 1010 nM | 5.54 nM | 639 nM
17 | CCc1cc(Nc2ncc(Cl)c(Nc3ccccc3P(C)(C)=O)n2)c(OC)cc1N1CCC(N2CCN(CC/C=C\c3cccc4c3CN(C3CCC(=O)NC3=O)C4=O)CC2)CC1 (stereo not shown) [Example E37] | 15.3 nM | 3.1 nM | 1210 nM | 4.84 nM | 1070 nM
18 | CCc1cc(Nc2ncc(Cl)c(Nc3ccccc3P(C)(C)=O)n2)c(OC)cc1N1CCC(N(C)CCCCOc2cccc3c2CN(C2CCC(=O)NC2=O)C3=O)CC1 (stereo not shown) [Example E116] | 56.3 nM | 4.3 nM | 1220 nM | 7.32 nM | > 4000 nM
19 | COc1cc(N2CCC(N3CCc4cc(Oc5cccc6c5CN(C5CCC(=O)NC5=O)C6=O)ccc4C3)CC2)c(C2CC2)cc1Nc1ncc(Cl)c(Nc2ccccc2P(C)(C)=O)n1 (stereo not shown) [Example E75] | 64.2 nM | 20.2 nM | > 4000 nM | 26.3 nM | 80.3 nM
20 | COc1cc(N2CCC(N3CCC4(CCC(=Cc5cccc6c5CN(C5CCC(=O)NC5=O)C6=O)CC4)C3)CC2)c(C2CC2)cc1Nc1ncc(Cl)c(Nc2ccccc2P(C)(C)=O)n1 (stereo not shown) [Example E36] | 24.7 nM | 3.1 nM | 1130 nM | 9.49 nM | 541 nM
21 | CCc1cc(Nc2ncc(Cl)c(Nc3ccccc3P(C)(C)=O)n2)c(OC)cc1N1CCC(N2C[C@@H]3C[C@H]2CN3CCOc2cccc3c2CN(C2CCC(=O)NC2=O)C3=O)CC1 (stereo partly shown) [Example E137] | 76.3 nM | 6.6 nM | 1270 nM | 11.5 nM | 1080 nM
22 | CCc1cc(Nc2nc(Nc3ccccc3P(C)(C)=O)c3cc[nH]c3n2)c(C)cc1N1CCC(N2CCN(CCCCOc3cccc4c3CN(C3CCC(=O)NC3=O)C4=O)CC2)CC1 (stereo not shown) [Example E140] | 54.6 nM | 8.1 nM | > 4000 nM | 7.97 nM | > 4000 nM
23 | CCc1cc(Nc2ncc(Cl)c(Nc3ccccc3P(C)(C)=O)n2)c(OC)cc1N1CCC(N2C[C@@H](C)N(CCCCOc3cccc4c3CN(C3CCC(=O)NC3=O)C4=O)[C@@H](C)C2)CC1 (stereo partly shown) [Example E129] | 47.7 nM | 3.3 nM | 1330 nM | 6.13 nM | 889 nM
